Assays:
[1] = In vitro drug release of mepivacaine (dialysis tube, PBS, 37° C., UV-Vis); type: physicochemical
Protocol: For the in vitro drug release, mepivacaine hydrochloride was dissolved in 1 mL of gel previously prepared to reach different mepivacaine concentration. The pH of the resulting thixotropic colloidal suspension before the addition of mepivacaine was 7.95, while after the addition of the drug changed to 7.1. The gel+mepivacaine was placed in a Pur-L-Lyzer™ dialysis tube with a molecular weight cut-off of 12000 Da, while the control group is represented by the mepivacaine dissolved in PBS (2% w/v) and placed in a dialysis tubes with the same molecular weight cut-off. The tubes were incubated in 30 mL of phosphate buffer saline solution (PBS) at 37° C., and the solution was changed at different time points comprised between 0 and 168 hours. In order to calculate the amount of drug released, the extracted solutions were analyzed with UV-Vis spectroscopy following the absorption of mepivacaine at 263 nm. All experiments were done in triplicates.

mice tibial fracture = experiment: Mice tibial fracture model (guarding, weight bearing, micro-CT, three point bending); type: in vivo; details: three point bending test, two weeks following fracture
Protocol: The effects of NMP alone, NMP combined with mepivacaine and mepivacaine alone, on post-fracture mobilization, postoperative pain and bone healing were assessed in vivo using a standardized mice tibial fracture model (St-Arnaud, The Journal of steroid biochemistry and molecular biology 121, 254-256 (2010)). Thirty-two mice were randomly assigned into four groups (n=8, each); saline, mepivacaine, NMP and NMP+mepivacaine. Thirty minutes prior to surgical intervention, each mouse was injected with Carprofen (20 mg/kg; SC).
The animal was then anesthetized with isoflurane (3-5% at the induction time and 2-2.5% during the maintenance period). […] A longitudinal skin incision was made in order to expose the right patellar tendon. […]
Post-operative Animals' pain perception and locomotion were evaluated, at different time point; […], 3 days, one week and two weeks post fracture, by assessing mice guarding (Yasuda et al., Journal of pain research 6, 161 (2013)) and weight bearing per each leg, respectively. […] Guarding behavior was assessed as following; each mouse was placed individually in a clear plastic box on an elevated stainless steel mesh. […]
Weight bearing test was performed as following; an incapacitance meter (IITC.inc, CA, US) was used for determination of hind paw weight distribution. […] The weight exerted by each hind limb was measured and averaged over a period of 5 seconds. […]

Cc1cccc(C)c1NC(=O)C1CCCCN1C (stereo not drawn) [mepivacaine]
total release of drug ([1]; after 8 hours, PBS, 37° C.): 90±5%
stability of mepivacaine in contact with the gel (UV-Vis spectra) ([1]; after 24 hours from the beginning of the release experiment): molecular integrity of the drug
force to fracture, fractured versus non-fractured tibia (mice tibial fracture): significantly different
